Assay results reported in patent US20080311126A1, “Antisense Oligonucleotides Directed to Ribonucleotide Reducatase R2 and Uses Thereof in Combination Therapies for the Treatment of Cancer” (Genesense Technologies, Inc, priority 2004, published 2008).
Oligonucleotides are written 5' to 3', each unit as a sugar letter and its base; * is a phosphorothioate linkage, no mark a phosphodiester; rarer units and linkages stand in square brackets, end groups in braces. Plain capitals give the bases only. d = 2'-deoxy (DNA)

Columns and labels:
Format in all cases: cell-based, human
A549 lung cell carcinoma = assay: Relative colony forming efficiency (Example 17, Table 13); conditions: averages of 2-8 determinations
How it was run: (§1)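 0.2 μM oligo (default) + 2.5 μg Lipofectin, 4 h exposure; methylene blue stain, colonies counted; vs lipofectin-alone control, reported as % inhibition.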

[1] = tested on: PC-3 prostrate cell adenocarcinoma; assay: as above; conditions: averages of 2-8 determinations
How it was run: as §1

[2] = tested on: MDA-MB-231 breast cell adenocarcinoma; assay: as above; conditions: averages of 2-8 determinations
How it was run: as §1

[3] = tested on: T-47D breast ductal carcinoma; assay: as above; conditions: averages of 2-8 determinations
How it was run: as §1

[4] = tested on: HCT116 colon cell carcinoma; assay: as above; conditions: averages of 2-8 determinations
How it was run: as §1

[5] = tested on: MDA PaCa-2 pancreatic cell carcinoma; assay: as above; conditions: MIA PaCa-2 pancreatic cell carcinoma, averages of 2-8 determinations
How it was run: as §1

[6] = tested on: T24 bladder cell carcinoma; assay: as above; conditions: averages of 2-8 determinations
How it was run: as §1

[7] = tested on: HepG2 hepatocellular carcinoma; assay: as above; conditions: averages of 2-8 determinations
How it was run: as §1

Hela S3 cells = assay: Relative colony forming efficiency, lipofectin +/- oligonucleotide 4 hours; conditions: Hela S3 cervix carcinoma cells; averages of 2-8 determinations
How it was run: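 HeLa S3 cells were exposed to phosphorothioate antisense oligonucleotide (0.2 μM unless stated) with lipofectin for 4 h, then grown 7–10 days in 10% FBS medium. Methylene blue-stained colonies were counted and expressed as percent survival relative to lipofectin-only controls.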

[8] = tested on: H596 lung adenosquamous carcinoma cells; assay: Relative colony forming efficiency (Example 17, Table 13); conditions: averages of 2-8 determinations
How it was run: as §1

Substance | Reduced relative colony forming efficiency, A549 (% inhibition of colony forming ability) (A549 lung cell carcinoma) [%] | Reduced relative colony forming efficiency, PC-3 (% inhibition of colony forming ability) [1] [%] | Reduced relative colony forming efficiency, MDA-MB-231 (% inhibition of colony forming ability) [2] [%] | Reduced relative colony forming efficiency, T-47D (% inhibition of colony forming ability) [3] [%] | Reduced relative colony forming efficiency, HCT116 (% inhibition of colony forming ability) [4] [%] | Reduced relative colony forming efficiency, MIA PaCa-2 (% inhibition of colony forming ability) [5] [%] | Reduced relative colony forming efficiency, T24 (% inhibition of colony forming ability) [6] [%] | Reduced relative colony forming efficiency, HepG2 (% inhibition of colony forming ability) [7] [%] | Reduced relative colony forming efficiency, Hela S3 (% inhibition of colony forming ability) (Hela S3 cells) [%] | Reduced relative colony forming efficiency, 11596 (% inhibition of colony forming ability) [8] [%] | Reduced relative colony forming efficiency, PC-3 (% inhibition of colony forming ability) ([1]; listed as AS-II-75-20 *) [%] | Reduced relative colony forming efficiency, MDA-MB-231 (% inhibition of colony forming ability) ([2]; listed as AS-II-75-20 *) [%] | Reduced relative colony forming efficiency, MIA PaCa-2 (% inhibition of colony forming ability) ([5]; listed as AS-II-75-20 *) [%] | Reduced relative colony forming efficiency, T24 (% inhibition of colony forming ability) ([6]; listed as AS-II-75-20 *) [%] | Reduced relative colony forming efficiency, HepG2 (% inhibition of colony forming ability) ([7]; listed as AS-II-75-20 *) [%]
AAAACCTTGCTAAAACCCAG (antisense dA*dA*dA*dA*dC*dC*dT*dT*dG*dC*dT*dA*dA*dA*dA*dC*dC*dC*dA*dG) [AS-II-1197-20] | 89.15 | 74.4 | 50.35 | 81.95 | 84.85 | 70.68 | 90.3 | 76.32 | 82.68 |  |  |  |  |  | 
ATCGCCGCCGTG (antisense dA*dT*dC*dG*dC*dC*dG*dC*dC*dG*dT*dG) [AS-II-1775-12] | 63.55 | 78.17 | 48.6 |  |  | 27.78 | 85.54 | 43.97 | 68.61 | 18.6 |  |  |  |  | 
CCCCTTCAGCGGCG (antisense dC*dC*dC*dC*dT*dT*dC*dA*dG*dC*dG*dG*dC*dG) [AS-II-253-14] | 61.62 | 67.26 |  | 27.09 | 53.28 |  | 19.41 | 42 | 65.18 | 0.81 |  |  |  |  | 
CGCGCGCTCCCGGCCCTTCC (listed as DNA, chemistry not fully specified) [AS-II-75-20] | 60.08 | 83.46 | 95.14 | 32.95 | 44.4 | 52.07 | 95.83 | 97.89 | 93.01 |  | 68.25 | 49.3 | 97.38 | 73.42 | 35.4
CGCGCTCCCGGCCC (antisense dC*dG*dC*dG*dC*dT*dC*dC*dC*dG*dG*dC*dC*dC) [AS-II-79-14] | 79.17 | 85.32 | 48.6 | 70.81 | 45.56 | 38.89 | 38.4 | 70.81 | 28.64 |  |  |  |  |  | 
CGGCGGCGTGTT (antisense dC*dG*dG*dC*dG*dG*dC*dG*dT*dG*dT*dT) [AS-II-288-12] | 70.49 | 74.01 | 52.1 |  | 67.57 | 30.09 | 30.38 | 65.89 | 57.63 | 12.67 |  |  |  |  | 
G*CC*TCCG*ACC*CTTC*CC*ATT*G (antisense dG*dCdC*dTdCdCdG*dAdCdC*dCdTdTdC*dCdC*dAdTdT*dG) [AS-II-13-20] | 32.3 | 52.38 | 45.45 | 15.33 | 6.95 |  | 18.99 | 24.11 | 19.85 | 19.63 |  |  |  |  | 
GACACAAGGCATCGTTTCAA (antisense dG*dA*dC*dA*dC*dA*dA*dG*dG*dC*dA*dT*dC*dG*dT*dT*dT*dC*dA*dA) [AS-II-784-20] | 83.8 | 88.99 | 33.92 | 85.39 | 78.09 | 62.04 | 87.23 | 80.89 | 81.48 |  |  |  |  |  | 
GCACGGGCGACC (antisense dG*dC*dA*dC*dG*dG*dG*dC*dG*dA*dC*dC) [AS-II-127-12] | 69.33 | 79.56 | 38.46 | 37.54 | 54.34 | 53.34 | 50.63 | 71.75 | 86.45 |  |  |  |  |  | 
GGGAGAGCATAGTGGAGGCG (antisense dG*dG*dG*dA*dG*dA*dG*dC*dA*dT*dA*dG*dT*dG*dG*dA*dG*dG*dC*dG) [AS-II-185-20] | 71.51 | 4.37 | 17.4 | 94.52 |  | 29.32 | 21.94 | 53.44 | 19.38 | 24.53 |  |  |  |  | 
